Experiment: xn = mol fraction of the nth substance listed
Conditions: 100 kPa

CCCC[n+]1ccn(C)c1.O=S(=O)([N-]S(=O)(=O)C(F)(F)F)C(F)(F)F + CCO
Conditions	viscosity [mPa·s]
305.12 K, x1 = 1	38.4
306.03 K, x1 = 0.2688	4.76
306.33 K, x1 = 0.5784	13.83
306.33 K, x1 = 0.8264	24.6
306.64 K, x1 = 0.2688	4.69
306.64 K, x1 = 0.6609	16.39
306.94 K, x1 = 0.2129	3.8
307.24 K, x1 = 0.4215	8.27
307.24 K, x1 = 0.4606	9.23
308.15 K, x1 = 0.2688	4.53
308.15 K, x1 = 0.6609	15.67
308.45 K, x1 = 0.2129	3.67
308.45 K, x1 = 0.6609	15.53
308.45 K, x1 = 0.747	19.5
308.76 K, x1 = 0.4215	7.93
308.76 K, x1 = 0.5784	12.88
308.76 K, x1 = 0.747	19.3
309.06 K, x1 = 0.2688	4.44
309.67 K, x1 = 0.4215	7.73
309.67 K, x1 = 1	32.4
309.97 K, x1 = 0.4606	8.58
309.97 K, x1 = 0.747	18.6
310.58 K, x1 = 0.747	18.3
310.88 K, x1 = 0.2129	3.47
310.88 K, x1 = 0.5784	12.12
310.88 K, x1 = 0.8264	20.9
311.18 K, x1 = 0.4606	8.31
311.48 K, x1 = 0.2129	3.42
311.79 K, x1 = 0.4606	8.18
311.79 K, x1 = 0.5784	11.8
311.79 K, x1 = 0.747	17.58
311.79 K, x1 = 0.8264	20.3
312.09 K, x1 = 0.2688	4.13
312.09 K, x1 = 0.6609	13.95
312.39 K, x1 = 0.2688	4.1
312.39 K, x1 = 0.4606	8.05
312.7 K, x1 = 0.2688	4.07
313 K, x1 = 0.747	16.94
313 K, x1 = 1	28.8
313.3 K, x1 = 0.4215	7.02
313.61 K, x1 = 0.8264	19
313.91 K, x1 = 0.6609	13.23
313.91 K, x1 = 0.747	16.47
314.21 K, x1 = 0.2129	3.21
314.21 K, x1 = 0.2688	3.93
314.21 K, x1 = 0.747	16.32
314.52 K, x1 = 0.5784	10.92
314.52 K, x1 = 0.747	16.17
314.82 K, x1 = 0.6609	12.88
315.12 K, x1 = 0.8264	18.1
315.42 K, x1 = 0.2688	3.82
315.42 K, x1 = 0.6609	12.66
315.73 K, x1 = 0.4215	6.59
315.73 K, x1 = 0.5784	10.55
315.73 K, x1 = 0.6609	12.55
316.03 K, x1 = 0.2688	3.77
316.33 K, x1 = 0.4606	7.27
316.64 K, x1 = 0.4215	6.44
316.64 K, x1 = 0.5784	10.29
316.64 K, x1 = 1	25.4
316.94 K, x1 = 0.6609	12.12
316.94 K, x1 = 0.8264	17
317.24 K, x1 = 0.6609	12.01
317.55 K, x1 = 0.2688	3.64
317.55 K, x1 = 0.4215	6.29
317.55 K, x1 = 0.5784	10.03
317.85 K, x1 = 0.4215	6.24
317.85 K, x1 = 0.6609	11.8
318.15 K, x1 = 0.2688	3.58
318.15 K, x1 = 0.4606	6.94
318.76 K, x1 = 0.4606	6.83
318.76 K, x1 = 0.5784	9.69
318.76 K, x1 = 1	23.7
319.06 K, x1 = 0.2129	2.87
319.67 K, x1 = 0.4215	5.97
319.67 K, x1 = 0.747	13.83
319.97 K, x1 = 0.4606	6.63
319.97 K, x1 = 0.5784	9.37
320.27 K, x1 = 0.5784	9.29
320.27 K, x1 = 0.747	13.58
320.27 K, x1 = 0.8264	15.24
320.58 K, x1 = 0.4215	5.83
321.18 K, x1 = 0.4606	6.43
321.18 K, x1 = 0.6609	10.73
321.48 K, x1 = 0.747	13.09
321.79 K, x1 = 0.2688	3.29
321.79 K, x1 = 0.4606	6.33
322.09 K, x1 = 0.2129	2.67
322.09 K, x1 = 0.4215	5.62
322.09 K, x1 = 1	21.3
322.39 K, x1 = 0.747	12.74
322.7 K, x1 = 0.747	12.63
323 K, x1 = 0.4606	6.15
